Test results: patent publication US20070082915A1 (priority 2003, published 2007)
Read-outs that look alike come from different tables or passages of the source.

Tested on: Pyricularia oryzae
Assay type: in vivo
Settings: individual active compound, protective spray, inoculated next day, rated after 6 days

| Structure (SMILES) | Efficacy in % of the untreated control (1 ppm in the spray liquor) | Efficacy in % of the untreated control (4 ppm in the spray liquor) |
| --- | --- | --- |
| CC1CCN(c2c(-c3c(F)cccc3Cl)c(Cl)nc3ncnn23)CC1 [A] | 0% | 11% |
| CC(Nc1c(-c2c(F)cc(F)cc2F)c(Cl)nc2ncnn12)C(F)(F)F (centres unmarked) [B] | 11% | 33% |
| CC1CCN(c2c(-c3c(F)cc(F)cc3F)c(Cl)nc3ncnn23)CC1 [I, 5-chloro-7-(4-methylpiperidin-1-yl)-6-(2,4,6-trifluorophenyl)-[1,2,4]triazolo[1,5-a]pyrimidine] | 11% | 33% |
| CCCC1COC(Cn2cncn2)(c2ccc(Cl)cc2Cl)O1 (centres unmarked) [II, 1-[2-(2,4-dichlorophenyl)-4-propyl-[1,3]dioxolan-2-ylmethyl]-1H-[1,2,4]triazole] | 0% | 0% |
